Reference: patent publication US20090263780A1, “Organ preservation fluid” (priority 2008, published 2009)

System: Cortical neurons cultures
Assay: Neuron viability (MTT reduction test) after anoxic insult
Type: cell-based, Sprague-Dawley rats
Protocol: Neuron culture: Cortical neurons cultures were prepared from fetal Sprague-Dawley rats at 17-day gestation. Timed pregnant Sprague-Dawley rats were euthanized with isoflorane. After dissection of the cortical region of the fetal brain, cortical neurons were dispersed by trituration, centrifuged at 250 g for 5 minutes at 4° C., and suspended in a neurobasal medium supplemented with 25 μmol/L glutamic acid, 0.5 mmol/L glutamine, 1% antibiotic-antimycotic solution, and 2% B27 supplement. Cells were plated at 5×10^5 cells/ml on poly-L-lysine-coated 24-well plates. Cytosine (10 μmol/) was added at day 3. Neuron cultures were fed every 4 days with replacement of half of neurobasal medium containing 0.5 mmol/L glutamine, 1% antibiotic-antimycotic solution, and 2% B27 supplement. The culture plates were incubated at 37° C. in a humid atmosphere with 5% CO2. […]
Validation of neurons' survival: Neuronal viability was quantitatively evaluated by a methyl thiazole tetrazolium (MTT) reduction test. This quantifies the formation of a dark blue formazan product formed by the reduction of the tetrazolium ring of MTT by the mitochondrial succinate dehydrogenase in living cells. […] Cell viability corresponded to the value of the optical density read at 570 nm with background subtraction at 630 nm. Results were expressed as percent of the optical density measured in normal control cells.

Which “Neuronal viability after anoxia, result in words” value (ACSF supplemented with the polypeptide, anoxic environment, comparison) does the source give for “B: 2 wt % albumin (native bovine serum albumin, molecular weight 68 kDa, pI 4.8) + ACSF” here?
Its value is “significantly increased neuronal viability”.

What about the “Neuron's viability (Percentage, Mean ± SD)” value (anoxia 60 mins at 37° C., culture media replaced by 2 wt % test polypeptide + ACSF, MTT 24 hours after anoxia, percent of optical density in normal control cells) of the same substance?
Its value is 96 ± 3.9 Percentage.
